According to PubChem BioAssay (NCI):
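Five compound concentrations were applied to cells in 96-well plates for 48 hours; endpoints were derived by simple linear interpolation of the resulting dose-response curve. Definition used: TGI = concentration required for complete inhibition of growth.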

Tests used:
Test in all cases: NCI-60 cell line screen, 48 h
[1] = tested on: BT-549 breast
[2] = tested on: CAKI-1 renal
[3] = tested on: DU-145 prostate
[4] = tested on: EKVX NSCLC
[5] = tested on: HOP-92 NSCLC
[6] = tested on: HT29 colon
[7] = tested on: IGROV1 ovarian
[8] = tested on: LOX IMVI melanoma
[9] = tested on: MALME-3M melanoma
[10] = tested on: MDA-MB-435
[11] = tested on: MOLT-4 leukemia
[12] = tested on: NCI-H226 lung
[13] = tested on: NCI/ADR-RES ovarian
[14] = tested on: SK-MEL-28 melanoma

SMILES	TGI [1] [µM]	TGI [2] [µM]	TGI [3] [µM]	TGI [4] [µM]	TGI [5] [µM]	TGI [6] [µM]	TGI [7] [µM]	TGI [8] [µM]	TGI [9] [µM]	TGI [10] [µM]	TGI [11] [µM]	TGI [12] [µM]	TGI [13] [µM]	TGI [14] [µM]
O=C(Nc1ccccc1)c1cc2cc(CCl)ccc2oc1=O	> 100	> 100	> 100	> 100	> 100	> 100	> 100	> 100	> 100	> 100	> 100	> 100	> 100	> 100
Clc1ccc2c(c1)CC1C[N+]3=C(CCCCC3)C1=C2 (stereo not given)	> 100	> 100	> 100	> 100	95.2	> 100	> 100	> 100	> 100	> 100	> 100	> 100	> 100	> 100
CC(C)(Cl)C(Cl)CC/C(CBr)=C(\Cl)CBr (stereo not given)	3.27	7.08	20.1	30.1	3.63	25	3.66	0.72	4.83	5.34	2.32	5.28	7.9	4.38
COc1ccccc1/C=C1\CCC(CN2CCOCC2)C1=O (stereo not given)	29.8	32.1	31.4	30.6	40.2	56.6	29.3	15.7	23.7	20.4	14.2	31.8	35.8	29.6
C/C1=C\CC[C@@]2(C)O[C@@H]2C[C@@H]2[C@H](C/C(C)=C/CC1)OC(=O)[C@]21CO1	> 100	> 100	> 100	> 100	> 100	> 100	> 100	44.6	> 100	> 100	> 100	> 100	> 100	> 100
COC(=O)N1C2C(C[C@@]1(C)C(=O)OC)c1ccccc1N2S(=O)(=O)c1ccccc1 (stereo not given in full)	> 100	> 100	> 100	> 100	> 100	> 100	> 100	> 100	> 100	> 100	> 100	> 100	> 100	> 100
Cc1c2c(n3c(nc4ccccc43)c1C#N)NCC2	> 10	> 10	> 10	> 10	> 10	> 10	> 10	> 10	> 10	> 10	> 10	> 10	> 10	> 10
CC(C)NC(=O)OCc1c(COC(=O)NC(C)C)c(-c2cc[n+](COC(=O)Cc3ccccc3)cc2)n2c1CCC2	> 100	> 100	> 100	> 100	> 100	> 100	> 100	> 100	> 100	> 100	> 100	> 100	> 100	> 100
COc1ccc2nc3c([N+](=O)[O-])ccc4c3c(c2c1)N=CN4CCN(C)C	28.6	5.71	15.8	18	26.1	14.4	13.2	14.6	14.5	25.9	6.73	20.3	22	39.5
O=C1/C(=C/c2cccc([N+](=O)[O-])c2)Cc2ccccc21	> 100	> 100	> 100	> 100	> 100	> 100	> 100	> 100	> 100	> 100	> 100	> 100	> 100	> 100
O=C(NCCCN1CCN(CCCNC(=O)c2cc(-c3ccccc3)nc3ccccc23)CC1)c1cc(-c2ccccc2)nc2ccccc12	51.1	20.8	> 67.1	51.5	28.5	> 39.7	27.8	10.6	3.21	14.7	> 66.1	> 65.3	> 72.3	3.99
CCOC(=O)C12CCC(c3c(C)cccc3C)(O1)C(C(=O)OC)=C2C(=O)OC (stereo not given)	> 10	> 10	> 10	> 10	> 10	4.72	> 10	> 7.87	6.4	2.27	> 10	> 10	> 10	> 10
CCOC(=O)Cc1ccc(Nc2nc3cc(F)c(F)cc3nc2C(=O)OCC)cc1	> 100	42.9	> 100	56.4	54.6	> 100	> 100	> 100	> 100	> 100	> 100	> 100	> 100	> 100
Cc1cc(S(=O)(=O)Nc2nnc3c(Cl)cc(C(F)(F)F)cn23)c(S)cc1Cl	> 100	> 100	> 100	> 100	> 100	> 100	> 100	> 100	> 100	> 100	> 100	> 100	> 100	> 100
C[C@@]12C[C@@H](c3ccccc3O1)N1CCCSC1=N2	> 100	> 100	> 100	> 100	> 100	> 100	> 100	> 100	> 100	> 100	> 100	> 100	> 100	> 100
